Measured values from BindingDB's records for doi:10.1128/aac.01536-06 (Public Health Research Institute, 2007).

Tests used:
[1] = target: T1, 1,3-beta-glucan synthase (Candida albicans, UniProt O13423); assay: Inhibition of glucan synthase in Candida albicans ATCC 90028 in presence of 50% human serum
[2] = target: T1, 1,3-beta-glucan synthase; assay: Inhibition of glucan synthase in Candida albicans ATCC 36082 in presence of 10% human serum
[3] = target: T1, 1,3-beta-glucan synthase; assay: Inhibition of glucan synthase in Candida albicans ATCC 36082 in presence of 20% human serum
[4] = target: T1, 1,3-beta-glucan synthase; assay: Inhibition of glucan synthase in Candida albicans ATCC 36082 in presence of 50% human serum
[5] = target: T1, 1,3-beta-glucan synthase; assay: Inhibition of glucan synthase in Candida albicans SC5314 in presence of 20% human serum
[6] = target: T1, 1,3-beta-glucan synthase; assay: Inhibition of glucan synthase in Candida albicans SC5314 in presence of 50% human serum
[7] = target: T1, 1,3-beta-glucan synthase; assay: Inhibition of glucan synthase in Candida albicans ATCC 36082
[8] = target: T1, 1,3-beta-glucan synthase; assay: Inhibition of glucan synthase in Candida albicans SC5314 in presence of 10% human serum
[9] = target: T1, 1,3-beta-glucan synthase; assay: Inhibition of glucan synthase in Candida albicans 36082 assessed as incorporation of [3H]uridine diphosphoglucose
[10] = target: T1, 1,3-beta-glucan synthase; assay: Inhibition of glucan synthase in Candida albicans 36082 assessed as incorporation of [3H]uridine diphosphoglucose in presence of 50% serum
[11] = target: T1, 1,3-beta-glucan synthase; assay: Inhibition of glucan synthase in Candida albicans ATCC 90028 in presence of 20% human serum

T1 sequence (O13423 whole entry): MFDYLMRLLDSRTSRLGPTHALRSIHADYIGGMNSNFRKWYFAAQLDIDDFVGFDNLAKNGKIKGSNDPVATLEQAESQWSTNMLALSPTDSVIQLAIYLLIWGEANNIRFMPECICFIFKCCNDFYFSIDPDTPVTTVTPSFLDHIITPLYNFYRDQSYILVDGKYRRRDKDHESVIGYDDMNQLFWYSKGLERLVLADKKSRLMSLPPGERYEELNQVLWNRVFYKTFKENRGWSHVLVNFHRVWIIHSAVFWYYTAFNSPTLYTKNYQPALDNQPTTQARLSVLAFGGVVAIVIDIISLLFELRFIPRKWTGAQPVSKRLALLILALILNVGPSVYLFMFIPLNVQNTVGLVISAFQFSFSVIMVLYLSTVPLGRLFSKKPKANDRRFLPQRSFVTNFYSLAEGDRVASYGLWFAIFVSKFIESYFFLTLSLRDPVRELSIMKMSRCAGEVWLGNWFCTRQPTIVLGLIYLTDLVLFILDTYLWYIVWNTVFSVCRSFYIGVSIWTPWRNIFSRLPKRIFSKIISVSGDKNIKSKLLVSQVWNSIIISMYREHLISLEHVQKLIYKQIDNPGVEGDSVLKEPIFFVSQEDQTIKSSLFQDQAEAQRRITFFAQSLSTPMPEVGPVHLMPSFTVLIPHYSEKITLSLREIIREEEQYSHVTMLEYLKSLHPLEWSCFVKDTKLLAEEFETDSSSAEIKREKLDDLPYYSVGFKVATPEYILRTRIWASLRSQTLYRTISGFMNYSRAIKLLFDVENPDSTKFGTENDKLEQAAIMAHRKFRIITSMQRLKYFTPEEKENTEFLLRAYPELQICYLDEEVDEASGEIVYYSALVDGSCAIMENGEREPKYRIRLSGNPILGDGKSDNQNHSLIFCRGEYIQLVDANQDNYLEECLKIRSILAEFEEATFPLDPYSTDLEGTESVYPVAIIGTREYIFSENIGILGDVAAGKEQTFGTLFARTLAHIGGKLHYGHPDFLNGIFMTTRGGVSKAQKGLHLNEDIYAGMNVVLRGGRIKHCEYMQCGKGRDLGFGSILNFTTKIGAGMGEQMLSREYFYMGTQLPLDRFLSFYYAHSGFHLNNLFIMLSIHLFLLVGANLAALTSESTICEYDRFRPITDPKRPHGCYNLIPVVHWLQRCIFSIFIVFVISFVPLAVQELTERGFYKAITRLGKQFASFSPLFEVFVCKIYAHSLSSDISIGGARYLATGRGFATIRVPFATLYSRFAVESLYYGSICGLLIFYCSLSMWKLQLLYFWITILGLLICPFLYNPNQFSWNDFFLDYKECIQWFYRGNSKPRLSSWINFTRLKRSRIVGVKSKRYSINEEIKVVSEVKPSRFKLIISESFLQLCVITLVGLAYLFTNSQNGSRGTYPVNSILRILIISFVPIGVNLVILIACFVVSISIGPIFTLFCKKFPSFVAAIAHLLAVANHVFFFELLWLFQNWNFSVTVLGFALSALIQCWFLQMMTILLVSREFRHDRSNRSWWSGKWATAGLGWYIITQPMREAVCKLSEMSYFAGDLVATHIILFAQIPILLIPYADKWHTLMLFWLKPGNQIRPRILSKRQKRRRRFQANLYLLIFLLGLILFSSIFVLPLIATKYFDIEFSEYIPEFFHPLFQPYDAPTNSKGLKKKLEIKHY

With CCC(C)CC(C)CCCCCCCCC(=O)N[C@H]1C[C@@H](O)[C@@H](NCCN)NC(=O)[C@@H]2[C@@H](O)CCN2C(=O)[C@H]([C@H](O)CCN)NC(=O)[C@H]([C@H](O)[C@@H](O)c2ccc(O)cc2)NC(=O)[C@@H]2C[C@@H](O)CN2C(=O)[C@H]([C@@H](C)O)NC1=O (stereo partly specified) [CHEBI:474180] the IC50 [1] was 6.3 nM, the IC50 [2] was 2.8 nM and the IC50 [3] was 5.3 nM. For the same compound, the IC50 [4] was 8.7 nM, the IC50 [5] was 37 nM and the IC50 [6] was 81 nM. For the same compound, the IC50 [7] was 0.9 nM, the IC50 [8] was 27 nM and the IC50 [9] was 0.33 nM. It also gave an IC50 [10] of 6.2 nM and an IC50 [11] of 2.1 nM.
